Experimental data: patent US10316017B2, “COT modulators and methods of use thereof” (Gilead Sciences, Inc., priority 2015, dated 2019)
pEC50, pIC50: −log10 of the molar value.

What was measured:
[1] = test system: TNFα production in LPS-stimulated human monocytes; test: Cot Monocyte TNFα Cell Based Assay; conditions: Homo sapiens, Monocyte, TNFα in LPS-stimulated human monocytes; read-out: EC50 TNF
Summary of the method: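 Percent-of-control values derive from TR-FRET ratios of TNFα in spun-down media, referenced to unstimulated and LPS-stimulated wells. Exposure: 1 h compound preincubation, then 50 pg/ml LPS for 4 h, both at 37 °C, with 0.5% final DMSO.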

[2] = target: T1, human Cot catalytic domain (30-397 amino acids) (Homo sapiens, UniProt P41279); test: High Throughput Cot Biochemical Assay (KinEASE TR-FRET); conditions: Cot biochemical HTRF (KinEASE TR-FRET) assay; read-out: IC50 HTRF
T1 construct: Purified recombinant human Cot catalytic domain (30-397 amino acids) was purchased from Cama Biosciences; purchased Cama Biosciences (so in the source)
Summary of the method: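 Phosphorylation of 1 μM XL665-STK3 peptide by 5 nM Cot catalytic domain was measured by time-resolved FRET using a europium […] antibody. ATP was 400 μM; buffer was 10 mM MOPS pH 7.0 with Mg2+ and DTT.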

T1 sequence (P41279 30-397): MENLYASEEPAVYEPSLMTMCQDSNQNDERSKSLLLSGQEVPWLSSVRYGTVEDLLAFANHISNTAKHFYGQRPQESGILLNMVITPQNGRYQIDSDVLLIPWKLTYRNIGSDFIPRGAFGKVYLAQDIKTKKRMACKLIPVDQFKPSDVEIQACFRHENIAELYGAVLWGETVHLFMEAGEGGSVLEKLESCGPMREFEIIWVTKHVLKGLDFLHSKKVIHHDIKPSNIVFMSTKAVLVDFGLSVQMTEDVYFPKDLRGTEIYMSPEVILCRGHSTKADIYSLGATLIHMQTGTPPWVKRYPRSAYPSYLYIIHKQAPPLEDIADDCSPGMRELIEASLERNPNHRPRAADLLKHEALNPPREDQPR

| pEC50 [1] | pIC50 [2] | SMILES |
| --- | --- | --- |
| 6.49 | 8.30 | CC(=O)N(C)c1cccc([C@H](Nc2cc(Cl)c3ncc(C#N)c(Nc4cnc(F)c(F)c4)c3c2)c2cn(CC(F)(F)F)nn2)c1 [Example 510, (S)-N-(3-(((8-chloro-3-cyano-4-((5,6-difluoropyridin-3-yl)amino)quinolin-6-yl)amino)(1-(2,2,2-trifluoroethyl)-1H-1,2,3-triazol-4-yl)methyl)phenyl)-N-methylacetamide] |
| 6.15 | 7.77 | N#Cc1cnc2c(Cl)cc(N[C@@H](c3ccc(F)cc3)c3cn(C4COC4)nn3)cc2c1Nc1cnc(F)c(F)c1 [Example 511, (S)-8-chloro-4-((5,6-difluoropyridin-3-yl)amino)-6-(((4-fluorophenyl)(1-(oxetan-3-yl)-1H-1,2,3-triazol-4-yl)methyl)amino)quinoline-3-carbonitrile] |
| 5.96 | 7.07 | N#Cc1cnc2c(Cl)cc(N[C@@H](c3ccc(F)cc3)c3cn(CC(F)(F)F)nn3)cc2c1Nc1cnc(F)c(F)c1 [Example 512, (S)-8-chloro-4-((5,6-difluoropyridin-3-yl)amino)-6-(((4-fluorophenyl)(1-(2,2,2-trifluoroethyl)-1H-1,2,3-triazol-4-yl)methyl)amino)quinoline-3-carbonitrile] |
| 5.87 | 7.66 | N#Cc1cnc2c(Cl)cc(N[C@@H](c3ccc(F)cc3)c3c[nH]nn3)cc2c1Nc1cnc(F)c(F)c1 [Example 513, (S)-8-chloro-4-((5,6-difluoropyridin-3-yl)amino)-6-(((4-fluorophenyl)(1H-1,2,3-triazol-4-yl)methyl)amino) quinoline-3-carbonitrile] |
| 7.21 | 8.70 | CCN1CC[C@@H](n2cc([C@@H](Nc3cc(Cl)c4ncc(C#N)c(Nc5ccc(F)c(Cl)c5)c4c3)c3ccccc3)nn2)[C@H](O)C1 [Example 514, 8-chloro-4-((3-chloro-4-fluorophenyl)amino)-6-(((S)-(1-((3R,4R)-1-ethyl-3-hydroxypiperidin-4-yl)-1H-1,2,3-triazol-4-yl)(phenyl)methyl)amino) quinoline-3-carbonitrile] |
| 6.49 | 9.00 | N#Cc1cnc2c(Cl)cc(N[C@@H](c3ccccc3)c3cn([C@@H]4CCNC[C@H]4O)nn3)cc2c1Nc1ccc(F)c(Cl)c1 [Example 515, 8-chloro-4-((3-chloro-4-fluorophenyl)amino)-6-(((S)-(1-((3R,4R)-3-hydroxypiperidin-4-yl)-1H-1,2,3-triazol-4-yl)(phenyl)methyl)amino) quinoline-3-carbonitrile] |
| 7.04 | 8.40 | CCN1CCC(n2cc([C@@H](Nc3cc(Cl)c4ncc(C#N)c(Nc5cccc(Cl)c5)c4c3)c3ccccc3)nn2)[C@H](O)C1 (some centres unmarked) [Example 516] |
| 6.59 | 8.00 | N#Cc1cnc2c(Cl)cc(N[C@@H](c3ccccc3)c3cn([C@@H]4CCN(C5COC5)C[C@H]4O)nn3)cc2c1Nc1cccc(Cl)c1 [Example 517, 8-chloro-4-((3-chlorophenyl)amino)-6-(((S)-(1-((3R,4R)-3-hydroxy-1-(oxetan-3-yl)piperidin-4-yl)-1H-1,2,3-triazol-4-yl)(phenyl)methyl)amino) quinoline-3-carbonitrile] |
| 6.24 | 7.28 | N#Cc1cnc2c(Cl)cc(N[C@@H](c3cccc(CN4CC(F)(F)C4)c3)c3c[nH]nn3)cc2c1Nc1ccc(Cl)c(Cl)c1F [Example 518, (S)-8-chloro-4-((3,4-dichloro-2-fluorophenyl)amino)-6-(((3-((3,3-difluoroazetidin-1-yl)methyl)phenyl)(1H-1,2,3-triazol-4-yl)methyl)amino) quinoline-3-carbonitrile] |
| 5.50 | 6.52 | N#Cc1cnc2c(Cl)cc(NC(c3ccccc3)c3nn[nH]c3CN3CCOCC3)cc2c1Nc1ccc(F)c(Cl)c1 (centres unmarked) [Example 519, 8-chloro-4-((3-chloro-4-fluorophenyl)amino)-6-(((5-(morpholinomethyl)-1H-1,2,3-triazol-4-yl)(phenyl)methyl)amino) quinoline-3-carbonitrile] |
| < 5.00 | < 5.00 | CC(C)(C)N1CCC(n2cc([C@@H](Nc3cc(Cl)c4ncc(C#N)c(NS(=O)(=O)c5ccccc5)c4c3)c3ccccc3)nn2)CC1 [Example 520, (S)-N-(6-(((1-(1-(tert-butyl)piperidin-4-yl)-1H-1,2,3-triazol-4-yl)(phenyl)methyl)amino)-8-chloro-3-cyanoquinolin-4-yl)benzenesulfonamide] |
| 6.03 | 7.39 | CC(C)(C)N1CCC(n2cc([C@@H](Nc3cc(Cl)c4ncc(C#N)c(Nc5cnc(Cl)c(F)c5)c4c3)c3ccccc3)nn2)CC1 [Example 521, (S)-6-(((1-(1-(tert-butyl)piperidin-4-yl)-1H-1,2,3-triazol-4-yl)(phenyl)methyl)amino)-8-chloro-4-((6-chloro-5-fluoropyridin-3-yl)amino)quinoline-3-carbonitrile] |
| 5.01 | 6.10 | C[C@H](Nc1c(C#N)cnc2c(Cl)cc(N[C@@H](c3ccccc3)c3cn(C4CCN(C(C)(C)C)CC4)nn3)cc12)C1CCOCC1 [Example 522, 6-(((S)-(1-(1-(tert-butyl)piperidin-4-yl)-1H-1,2,3-triazol-4-yl)(phenyl)methyl)amino)-8-chloro-4-(((S)-1-(tetrahydro-2H-pyran-4-yl)ethyl)amino)quinoline-3-carbonitrile] |
| 5.31 | 6.52 | C[C@@H](Nc1c(C#N)cnc2c(Cl)cc(N[C@@H](c3ccccc3)c3cn(C4CCN(C(C)(C)C)CC4)nn3)cc12)C1CCCCC1 [Example 523, 6-(((S)-(1-(1-(tert-butyl)piperidin-4-yl)-1H-1,2,3-triazol-4-yl)(phenyl)methyl)amino)-8-chloro-4-(((R)-1-cyclohexylethyl)amino) quinoline-3-carbonitrile] |
| < 5.00 | 6.10 | C[C@@H](Nc1c(C#N)cnc2c(Cl)cc(N[C@@H](c3ccccc3)c3cn(C4CCN(C(C)(C)C)CC4)nn3)cc12)C1CCOCC1 [Example 524, 6-(((S)-(1-(1-(tert-butyl)piperidin-4-yl)-1H-1,2,3-triazol-4-yl)(phenyl)methyl)amino)-8-chloro-4-(((R)-1-(tetrahydro-2H-pyran-4-yl)ethyl)amino) quinoline-3-carbonitrile] |
| 5.37 | 6.14 | CC(C)(C)N1CCC(n2cc([C@@H](Nc3cc(Cl)c4ncc(C#N)c(Nc5ccc(F)c(OC(F)(F)F)c5)c4c3)c3ccccc3)nn2)CC1 [Example 525, (S)-6-(((1-(1-(tert-butyl)piperidin-4-yl)-1H-1,2,3-triazol-4-yl)(phenyl)methyl)amino)-8-chloro-4-((4-fluoro-3-(trifluoromethoxy)phenyl)amino)quinoline-3-carbonitrile] |
| 6.30 | 7.62 | CC(C)(C)N1CCC(n2cc([C@@H](Nc3cc(Cl)c4ncc(C#N)c(Nc5cccc(Cl)c5Cl)c4c3)c3ccccc3)nn2)CC1 [Example 526, (S)-6-(((1-(1-(tert-butyl)piperidin-4-yl)-1H-1,2,3-triazol-4-yl)(phenyl)methyl)amino)-8-chloro-4-((2,3-dichlorophenyl)amino) quinoline-3-carbonitrile] |
| 5.86 | 7.28 | CC(C)(C)N1CCC(n2cc([C@@H](Nc3cc(Cl)c4ncc(C#N)c(Nc5cc(Cl)ccc5Cl)c4c3)c3ccccc3)nn2)CC1 [Example 527, (S)-6-(((1-(1-(tert-butyl)piperidin-4-yl)-1H-1,2,3-triazol-4-yl)(phenyl)methyl)amino)-8-chloro-4-((2,5-dichlorophenyl)amino) quinoline-3-carbonitrile] |
| 6.08 | 7.27 | N#Cc1cnc2c(Cl)cc(N[C@@H](c3cccc(N4CCCS4(=O)=O)c3)c3c[nH]nn3)cc2c1Nc1ccc(Cl)c(Cl)c1F [Example 528, (S)-8-chloro-4-((3,4-dichloro-2-fluorophenyl)amino)-6-(((3-(1,1-dioxidoisothiazolidin-2-yl)phenyl)(1H-1,2,3-triazol-4-yl)methyl)amino)quinoline-3-carbonitrile] |
| 7.15 | 8.70 | N#Cc1cnc2c(Cl)cc(N[C@@H](c3ccccc3)c3cn(C4[C@H]5CNC[C@@H]45)nn3)cc2c1Nc1ccc(F)c(Cl)c1 (stereo partly drawn) [Example 529, 6-(((S)-(1-((1R,5S,6s)-3-azabicyclo[3.1.0]hexan-6-yl)-1H-1,2,3-triazol-4-yl)(phenyl)methyl)amino)-8-chloro-4-((3-chloro-4-fluorophenyl)amino) quinoline-3-carbonitrile] |
| < 5.00 | 6.70 | CC[N+](C)(CC)CCn1cc([C@@H](Nc2cc(Cl)c3ncc(C#N)c(Nc4ccc(Cl)c(Cl)c4F)c3c2)c2ccccc2)nn1 [Example 530, (S)-2-(4-(((8-chloro-3-cyano-4-((3,4-dichloro-2-fluorophenyl)amino)quinolin-6-yl)amino)(phenyl)methyl)-1H-1,2,3-triazol-1-yl)-N,N-diethyl-N-methylethan-1-aminium] |
| 6.31 | 7.80 | N#Cc1cnc2c(Cl)cc(N[C@@H](c3cccc(N4CCCC4=O)c3)c3c[nH]nn3)cc2c1Nc1ccc(Cl)c(Cl)c1F [Example 531, (S)-8-chloro-4-((3,4-dichloro-2-fluorophenyl)amino)-6-(((3-(2-oxopyrrolidin-1-yl)phenyl)(1H-1,2,3-triazol-4-yl)methyl)amino)quinoline-3-carbonitrile] |
